# Laboratory results published in paper PMC5218480 (PLoS ONE, 2017).
# Tested on: MV-4-11 cells
# Assay: Gene expression microarray analysis (Affymetrix PrimeView) and GSEA
# Assay type: cell-based, human
# Parameters: RFU PODN (11730768_x_at) / Fold change /veh PODN (11730768_x_at) / RFU LINC00158 (11744669_a_at) / Fold change /veh LINC00158 (11744669_a_at) / RFU DUSP10 (11751237_a_at) / Fold change /veh DUSP10 (11751237_a_at) / RFU ID3 (11757404_x_at) / Fold change /veh ID3 (11757404_x_at) / RFU PLEKHG5 (11737974_s_at) / Fold change /veh PLEKHG5 (11737974_s_at) / RFU LRRC4B (11730491_at) / Fold change /veh LRRC4B (11730491_at) / RFU GIMAP4 (11747438_a_at) / Fold change /veh GIMAP4 (11747438_a_at) / RFU KRT8 (11758183_x_at) / Fold change /veh KRT8 (11758183_x_at) / RFU CNN1 (11734310_a_at) / Fold change /veh CNN1 (11734310_a_at) / RFU VPS37D (11726825_at) / Fold change /veh VPS37D (11726825_at) / RFU C10orf10 (11716522_x_at) / Fold change /veh C10orf10 (11716522_x_at) / RFU KIR2DL2 /// KIR2DL4 /// KIR2DL5A /// KIR2DL5B /// KIR2DS1 /// KIR2DS2 /// KIR2DS3 /// KIR2DS4 /// KIR3DL3 /// KIR3DL3 /// KIR3DS1 (11738374_at) / Fold change /veh KIR2DL2 /// KIR2DL4 /// KIR2DL5A /// KIR2DL5B /// KIR2DS1 /// KIR2DS2 /// KIR2DS3 /// KIR2DS4 /// KIR3DL3 /// KIR3DL3 /// KIR3DS1 (11738374_at) / RFU C1QL1 (11718748_at) / Fold change /veh C1QL1 (11718748_at) / RFU TMPRSS4 (11747572_a_at) / Fold change /veh TMPRSS4 (11747572_a_at) / RFU HAMP (11756126_x_at) / Fold change /veh HAMP (11756126_x_at) / RFU RNFT2 (11725882_a_at) / Fold change /veh RNFT2 (11725882_a_at) / RFU NR4A2 (11747474_a_at) / Fold change /veh NR4A2 (11747474_a_at) / RFU ABCC12 (11746883_a_at) / Fold change /veh ABCC12 (11746883_a_at) / RFU TMEM136 (11760407_x_at) / Fold change /veh TMEM136 (11760407_x_at) / RFU CLDN22 /// WWC2 (11732394_at) / Fold change /veh CLDN22 /// WWC2 (11732394_at) / RFU HLA-DPB1 (11760878_x_at) / Fold change /veh HLA-DPB1 (11760878_x_at) / RFU SPINT1 (11716480_a_at) / Fold change /veh SPINT1 (11716480_a_at) / RFU GAP43 (11754022_s_at) / Fold change /veh GAP43 (11754022_s_at) / RFU A4GNT (11735810_at) / Fold change /veh A4GNT (11735810_at) / RFU PRB3 (11715151_x_at) / Fold change /veh PRB3 (11715151_x_at) / RFU TUBB4B (11761932_at) / Fold change /veh TUBB4B (11761932_at) / RFU CAPN14 (11732068_a_at) / Fold change /veh CAPN14 (11732068_a_at) / RFU TMCC2 (11721928_a_at) / Fold change /veh TMCC2 (11721928_a_at) / RFU IRGQ (11745062_a_at) / Fold change /veh IRGQ (11745062_a_at) / RFU FAM174B (11720279_a_at) / Fold change /veh FAM174B (11720279_a_at) / RFU TMPRSS4 (11748680_a_at) / Fold change /veh TMPRSS4 (11748680_a_at) / RFU FAM212B (11763350_a_at) / Fold change /veh FAM212B (11763350_a_at) / RFU PLEKHG5 (11743358_a_at) / Fold change /veh PLEKHG5 (11743358_a_at) / RFU ZSCAN30 (11745921_a_at) / Fold change /veh ZSCAN30 (11745921_a_at) / RFU CMKLR1 (11741424_a_at) / Fold change /veh CMKLR1 (11741424_a_at) / RFU LOC101060620 /// MAPK8IP1 (11723275_at) / Fold change /veh LOC101060620 /// MAPK8IP1 (11723275_at) / RFU SPTSSB (11747773_x_at) / Fold change /veh SPTSSB (11747773_x_at) / RFU PRSS12 (11739890_at) / Fold change /veh PRSS12 (11739890_at) / RFU BIN1 (11741810_x_at) / Fold change /veh BIN1 (11741810_x_at) / RFU WNT11 (11732464_a_at) / Fold change /veh WNT11 (11732464_a_at) / RFU C10orf10 (11716521_a_at) / Fold change /veh C10orf10 (11716521_a_at) / RFU C5orf56 (11738089_at) / Fold change /veh C5orf56 (11738089_at) / RFU CYB561 (11721691_x_at) / Fold change /veh CYB561 (11721691_x_at) / RFU ANKRD19P (11752326_a_at) / Fold change /veh ANKRD19P (11752326_a_at) / RFU OR2T12 /// OR2T33 /// OR2T8 (11738714_s_at) / Fold change /veh OR2T12 /// OR2T33 /// OR2T8 (11738714_s_at) / RFU VCAN (11748164_a_at) / Fold change /veh VCAN (11748164_a_at) / RFU JSRP1 (11732532_at) / Fold change /veh JSRP1 (11732532_at) / RFU KRTAP10-11 (11738290_x_at) / Fold change /veh KRTAP10-11 (11738290_x_at) / RFU MYO3A (11730013_a_at) / Fold change /veh MYO3A (11730013_a_at) / RFU EBF3 (11725865_a_at) / Fold change /veh EBF3 (11725865_a_at) / RFU CAMK2N1 (11719241_x_at) / Fold change /veh CAMK2N1 (11719241_x_at) / RFU C5orf56 (11738088_a_at) / Fold change /veh C5orf56 (11738088_a_at) / RFU OLFML3 (11715873_a_at) / Fold change /veh OLFML3 (11715873_a_at) / RFU LOC100653217 /// NTM (11731650_a_at) / Fold change /veh LOC100653217 /// NTM (11731650_a_at) / RFU MAPK11 (11762145_a_at) / Fold change /veh MAPK11 (11762145_a_at) / RFU FIZ1 (11724087_x_at) / Fold change /veh FIZ1 (11724087_x_at) / RFU OASL (11726364_x_at) / Fold change /veh OASL (11726364_x_at) / RFU SOX15 (11748057_x_at) / Fold change /veh SOX15 (11748057_x_at) / RFU CD79A (11719716_a_at) / Fold change /veh CD79A (11719716_a_at) / RFU HIST1H1D (11736915_at) / Fold change /veh HIST1H1D (11736915_at) / RFU CASKIN2 (11723855_a_at) / Fold change /veh CASKIN2 (11723855_a_at) / RFU LOC730098 (11760151_x_at) / Fold change /veh LOC730098 (11760151_x_at) / RFU OR4N2 (11742367_at) / Fold change /veh OR4N2 (11742367_at) / RFU PRRT2 (11749266_a_at) / Fold change /veh PRRT2 (11749266_a_at) / RFU SNX32 (11753110_a_at) / Fold change /veh SNX32 (11753110_a_at) / RFU CDHR5 (11726645_a_at) / Fold change /veh CDHR5 (11726645_a_at) / RFU RCAN1 (11760418_a_at) / Fold change /veh RCAN1 (11760418_a_at) / RFU FAM167A (11723789_a_at) / Fold change /veh FAM167A (11723789_a_at) / RFU FAM26E (11764081_at) / Fold change /veh FAM26E (11764081_at) / RFU ISYNA1 (11749810_s_at) / Fold change /veh ISYNA1 (11749810_s_at) / RFU ACY1 (11761880_at) / Fold change /veh ACY1 (11761880_at) / RFU 11764098_at / Fold change /veh 11764098_at / RFU SAMD14 (11745864_x_at) / Fold change /veh SAMD14 (11745864_x_at) / RFU NPB (11741838_a_at) / Fold change /veh NPB (11741838_a_at) / RFU TMPRSS6 (11731388_a_at) / Fold change /veh TMPRSS6 (11731388_a_at) / RFU KRTAP10-2 (11738614_at) / Fold change /veh KRTAP10-2 (11738614_at) / RFU ARHGAP8 /// PRR5-ARHGAP8 (11727945_x_at) / Fold change /veh ARHGAP8 /// PRR5-ARHGAP8 (11727945_x_at) / RFU KRTAP5-7 /// NADSYN1 (11734609_at) / Fold change /veh KRTAP5-7 /// NADSYN1 (11734609_at) / RFU RASL12 (11751679_a_at) / Fold change /veh RASL12 (11751679_a_at) / RFU CDKN2B (11736163_a_at) / Fold change /veh CDKN2B (11736163_a_at) / RFU PRF1 (11729649_at) / Fold change /veh PRF1 (11729649_at) / RFU, ZNF638 /// ZNF638-IT1 / Fold change vs veh, ZNF638 /// ZNF638-IT1 / RFU, PANK3 / Fold change vs veh, PANK3 / RFU, SH3YL1 / Fold change vs veh, SH3YL1 / RFU, ZEB2 / Fold change vs veh, ZEB2 / RFU, NRIP1 / Fold change vs veh, NRIP1 / RFU, PTTG1IP / Fold change vs veh, PTTG1IP / RFU, CAPN2 / Fold change vs veh, CAPN2 / RFU, MED14 / Fold change vs veh, MED14 / RFU, SNORA58 / Fold change vs veh, SNORA58 / RFU, C1orf63 / Fold change vs veh, C1orf63 / RFU, LRRFIP1 / Fold change vs veh, LRRFIP1 / RFU, NDUFAF7 / Fold change vs veh, NDUFAF7 / RFU, SLC12A2 / Fold change vs veh, SLC12A2 / RFU, IBTK / Fold change vs veh, IBTK / RFU, ESF1 / Fold change vs veh, ESF1 / Fold change vs veh, TMEM50B / RFU, TAOK1 / Fold change vs veh, TAOK1 / RFU, ACBD3 / Fold change vs veh, ACBD3 / RFU, TMA16 / Fold change vs veh, TMA16 / RFU, RWDD3 / Fold change vs veh, RWDD3 / RFU, BCAT1 / Fold change vs veh, BCAT1 / RFU, EDEM3 / Fold change vs veh, EDEM3 / RFU, TMEM33 / Fold change vs veh, TMEM33 / RFU, WDR75 / Fold change vs veh, WDR75 / RFU, AHCTF1 / Fold change vs veh, AHCTF1 / RFU, TFRC / Fold change vs veh, TFRC / RFU, ZDHHC17 / Fold change vs veh, ZDHHC17 / RFU, NOM1 / Fold change vs veh, NOM1 / RFU, ARL8B / Fold change vs veh, ARL8B / RFU, ZBTB11 / Fold change vs veh, ZBTB11 / RFU, TAMM41 / Fold change vs veh, TAMM41 / RFU, KIAA1704 /// LOC100996395 / Fold change vs veh, KIAA1704 /// LOC100996395 / RFU, ING1 / Fold change vs veh, ING1 / RFU, TRMT61B / Fold change vs veh, TRMT61B / RFU, FUBP3 / Fold change vs veh, FUBP3 / RFU, TP53 / Fold change vs veh, TP53 / RFU, TNKS2 / Fold change vs veh, TNKS2 / RFU, ZFP14 / Fold change vs veh, ZFP14 / RFU, ACTR2 / Fold change vs veh, ACTR2 / RFU, PPP3R1 / Fold change vs veh, PPP3R1 / RFU, PIK3R1 / Fold change vs veh, PIK3R1 / RFU, HNRNPA1 / Fold change vs veh, HNRNPA1 / RFU, RNF170 / Fold change vs veh, RNF170 / RFU, ZNF28 / Fold change vs veh, ZNF28 / RFU, RNGTT / Fold change vs veh, RNGTT / RFU, OGT / Fold change vs veh, OGT / RFU, BRD1 / Fold change vs veh, BRD1 / RFU, MARS / Fold change vs veh, MARS / RFU, ZNF655 / Fold change vs veh, ZNF655 / RFU, FAHD1 / Fold change vs veh, FAHD1 / RFU, BDP1 / Fold change vs veh, BDP1 / RFU, LRRCC1 / Fold change vs veh, LRRCC1 / RFU, ARID1A / Fold change vs veh, ARID1A / RFU, ZNF146 / Fold change vs veh, ZNF146 / RFU, ZNF330 / Fold change vs veh, ZNF330 / RFU, GPN3 / Fold change vs veh, GPN3 / RFU, C9orf123 / Fold change vs veh, C9orf123 / RFU, N4BP2L2 / Fold change vs veh, N4BP2L2 / RFU, ARFIP1 / Fold change vs veh, ARFIP1 / RFU, FAM179B / Fold change vs veh, FAM179B / RFU, BCL10 / Fold change vs veh, BCL10 / RFU, UHRF1BP1L / Fold change vs veh, UHRF1BP1L / RFU, BET1 / Fold change vs veh, BET1 / RFU, CNOT2 / Fold change vs veh, CNOT2 / RFU, ZNF268 / Fold change vs veh, ZNF268 / Fold change vs veh, ZNF507 / RFU, DGCR2 / Fold change vs veh, DGCR2 / RFU, WDSUB1 / Fold change vs veh, WDSUB1 / Fold change vs veh, HSP90B1 /// MIR3652 / RFU, ADSS / Fold change vs veh, ADSS / RFU, GK / Fold change vs veh, GK / RFU, ZNF148 / Fold change vs veh, ZNF148 / RFU, TAF9 / Fold change vs veh, TAF9 / RFU, SLC1A5 / Fold change vs veh, SLC1A5 / RFU, SLMO2 / Fold change vs veh, SLMO2 / RFU, ABCC4 / Fold change vs veh, ABCC4 / RFU, LOC101060439 /// RAP1B / Fold change vs veh, LOC101060439 /// RAP1B / RFU, RFX7 / Fold change vs veh, RFX7 / RFU, GTPBP10 / Fold change vs veh, GTPBP10 / RFU, CNEP1R1 / Fold change vs veh, CNEP1R1 / RFU, BIVM-ERCC5 /// ERCC5 / Fold change vs veh, BIVM-ERCC5 /// ERCC5 / RFU, ILF3 / Fold change vs veh, ILF3 / RFU 11762660_at / Fold change /veh 11762660_at / RFU VCAN (11757783_s_at) / Fold change /veh VCAN (11757783_s_at) / RFU DDX43 (11728927_at) / Fold change /veh DDX43 (11728927_at) / RFU KRT8 (11758188_x_at) / Fold change /veh KRT8 (11758188_x_at) / RFU NKD1 (11759106_at) / Fold change /veh NKD1 (11759106_at) / RFU SRD5A1 (11742802_a_at) / Fold change /veh SRD5A1 (11742802_a_at) / RFU TPSAB1 /// TPSB2 (11721975_s_at) / Fold change /veh TPSAB1 /// TPSB2 (11721975_s_at) / RFU GSTM3 (11746129_a_at) / Fold change /veh GSTM3 (11746129_a_at) / RFU IL23R (11737362_x_at) / Fold change /veh IL23R (11737362_x_at) / RFU TMEM51 (11727254_a_at) / Fold change /veh TMEM51 (11727254_a_at) / RFU PIWIL2 (11732686_x_at) / Fold change /veh PIWIL2 (11732686_x_at) / RFU ORM1 (11744905_x_at) / Fold change /veh ORM1 (11744905_x_at) / RFU CCDC152 (11743942_at) / Fold change /veh CCDC152 (11743942_at) / RFU ECM1 (11717891_a_at) / Fold change /veh ECM1 (11717891_a_at) / RFU IL23R (11748794_a_at) / Fold change /veh IL23R (11748794_a_at) / RFU TNFAIP8L3 (11732012_x_at) / Fold change /veh TNFAIP8L3 (11732012_x_at) / RFU MBOAT4 (11741988_at) / Fold change /veh MBOAT4 (11741988_at) / RFU 11764193_at / Fold change /veh 11764193_at / RFU TMEM53 (11763286_at) / Fold change /veh TMEM53 (11763286_at) / RFU MAGEB2 (11727129_at) / Fold change /veh MAGEB2 (11727129_at) / RFU TMEM200A (11744735_a_at) / Fold change /veh TMEM200A (11744735_a_at) / RFU CCDC152 (11751479_a_at) / Fold change /veh CCDC152 (11751479_a_at) / RFU FAM211A (11726209_a_at) / Fold change /veh FAM211A (11726209_a_at) / RFU RGS16 (11746705_a_at) / Fold change /veh RGS16 (11746705_a_at) / RFU VCAN (11755009_s_at) / Fold change /veh VCAN (11755009_s_at) / RFU RHOB (11743442_s_at) / Fold change /veh RHOB (11743442_s_at) / RFU RGS16 (11720943_a_at) / Fold change /veh RGS16 (11720943_a_at) / RFU RGS16 (11720944_at) / Fold change /veh RGS16 (11720944_at) / RFU, VPS4B / Fold change vs veh, VPS4B / RFU, CREB1 / Fold change vs veh, CREB1 / RFU, DNAJC13 / Fold change vs veh, DNAJC13 / RFU, GNAQ / Fold change vs veh, GNAQ / RFU, CDK5R1 / Fold change vs veh, CDK5R1 / RFU, ZRANB3 / Fold change vs veh, ZRANB3 / RFU, CUL4A / Fold change vs veh, CUL4A / RFU, CCNY / Fold change vs veh, CCNY / RFU, UFL1 / Fold change vs veh, UFL1 / RFU, COG3 / Fold change vs veh, COG3 / RFU, DIAPH2 / Fold change vs veh, DIAPH2 / RFU, SKA2 / Fold change vs veh, SKA2 / RFU, AFF3 / Fold change vs veh, AFF3 / RFU, LMF1 / Fold change vs veh, LMF1 / RFU, IPO11 / Fold change vs veh, IPO11 / RFU, DFFB / Fold change vs veh, DFFB / RFU, FOXP1 / Fold change vs veh, FOXP1 / RFU, CARD8 / Fold change vs veh, CARD8 / RFU, STRN3 / Fold change vs veh, STRN3 / RFU, ADK / Fold change vs veh, ADK / RFU, RASSF2 / Fold change vs veh, RASSF2 / RFU, WIPF1 / Fold change vs veh, WIPF1 / RFU, LARP1B / Fold change vs veh, LARP1B / RFU, RASA1 / Fold change vs veh, RASA1 / RFU, RB1 / Fold change vs veh, RB1 / RFU, PPFIA1 / Fold change vs veh, PPFIA1 / RFU, MAT2A / Fold change vs veh, MAT2A / RFU, CCT5 / Fold change vs veh, CCT5 / RFU, WDR92 / Fold change vs veh, WDR92 / RFU, CUX1 / Fold change vs veh, CUX1 / RFU, TTC7A / Fold change vs veh, TTC7A / RFU, TMEM135 / Fold change vs veh, TMEM135 / RFU, DEPTOR / Fold change vs veh, DEPTOR / RFU, CPM / Fold change vs veh, CPM / RFU, DNAJB6 / Fold change vs veh, DNAJB6 / RFU, CACNA2D3 / Fold change vs veh, CACNA2D3 / RFU, DTX4 / Fold change vs veh, DTX4 / RFU, TFCP2 / Fold change vs veh, TFCP2 / RFU, GMCL1 /// GMCL1P1 / Fold change vs veh, GMCL1 /// GMCL1P1 / RFU, AEBP2 / Fold change vs veh, AEBP2 / RFU, SNHG1 /// SNORD22 /// SNORD25 /// SNORD26 /// SNORD27 /// SNORD28 /// SNORD29 /// SNORD31 / Fold change vs veh, SNHG1 /// SNORD22 /// SNORD25 /// SNORD26 /// SNORD27 /// SNORD28 /// SNORD29 /// SNORD31 / Fold change (Aza/veh), C12orf56 (ProbeSet 11735607_a_at) / Fold change (ACY-1035/veh), C12orf56 (ProbeSet 11735607_a_at) / Fold change (Aza/veh), FGFR1OP (ProbeSet 11751329_s_at) / Fold change (ACY-1035/veh), FGFR1OP (ProbeSet 11751329_s_at) / Fold change (Aza/veh), VPS36 (ProbeSet 11739960_a_at) / Fold change (ACY-1035/veh), VPS36 (ProbeSet 11739960_a_at) / RFU SYPL1 (11715823_x_at) / Fold change /veh SYPL1 (11715823_x_at) / RFU IGFBP7 (11715501_s_at) / Fold change /veh IGFBP7 (11715501_s_at) / RFU REEP3 (11722064_at) / Fold change /veh REEP3 (11722064_at) / RFU IGLL1 (11728026_x_at) / Fold change /veh IGLL1 (11728026_x_at): dose or concentration left out as unconfirmed
# Details: MV-4-11 cells, 48 hours
smiles,measurement,value
Nc1ncn([C@@H]2O[C@H](CO)[C@@H](O)[C@H]2O)c(=O)n1 [azacitidine],RFU CNN1 (11734310_a_at),25.48 RFU
